Values quoted from earlier work in patent publication US9849144B2 (Healios Oncology Nutrition, LLC, priority 2013, dated 2017).

Experiments:
[1] = in vivo
CaCo-2 cells = settings: glucose containing disaccharides

| SMILES | daily dose with no safety or toxicity concerns [1] | increase of GLN uptake (CaCo-2 cells) | relative humidity up to which crystalline form is stable and remains free flowing |
| --- | --- | --- | --- |
| NC(=O)CC[C@H](N)C(=O)O [Glutamine, L-glutamine] | up to 40 grams a day | – | – |
| OC[C@H]1O[C@H](O[C@H]2O[C@H](CO)[C@@H](O)[C@H](O)[C@H]2O)[C@H](O)[C@@H](O)[C@@H]1O [trehalose, α-D-glucopyranosyl-1,1-α-D-glucopyranoside] | – | a thousand fold | up to 94 % relative humidity |
